Assay results from patent US7872027B2, “Low molecular weight Myc-max inhibitors” (University of Pittsburgh - Of the Commonwealth System of …, priority 2006, dated 2011).

How the values were obtained:
[1] = test system: HL60 human promyelocytic leukemia cells; assay: HL60 cell growth inhibition (trypan blue cell counts); type: cell-based
Description: Note that all structures shown herein are drawn in their Z-isoform and some bonds have been standardized. IC50's here, as well as below for in FIGS. 2 and 3, were calculated based upon dose-response profiles on day 5 following the addition of each compound.
HL60 human promyelocytic leukemia cells were grown in RPMI medium supplemented with 10% fetal calf serum, 100 U/ml penicillin G, and 100 μg/ml streptomycin (all from Mediatech, Inc., Herndon, Va.). Rat fibroblast lines were grown under similar conditions in Dulbecco's modified minimal essential medium. To determine the effects of Myc-Max compounds on HL60 cell growth, logarithmically growing cells (>90% viability) were resuspended in fresh medium. Four (4) ml (a total of 16,000 cells) were then seeded into 6-well plates in the presence of the indicated amount of Myc-Max compound. In all cases, 10058-F4 was included as a reference compound. Daily cell counts were performed manually in triplicate on a hemacytometer using trypan blue exclusion. Viabilities exceeded 85% throughout the course of the experiment.
Each compound was initially tested for its ability to inhibit the growth of the HL60 human promyelocytic leukemia cell line, which expresses high levels of c-Myc as a result of gene amplification (Park S—H, et al. Methods Mol Biol 2004; 261:161-165 (2004)). […]

c-Myc-Max complexes = biological target: T1, c-Myc-Max complexes (Homo sapiens, UniProt P01106); assay: co-immunoprecipitation of c-Myc and Max from HL60 nuclear extracts; type: biochemical; conditions: 30° C. for 30 min
T1 construct: endogenous in cells; host or cells: HL60 nuclear extract
Description: (§1) Equivalent amounts of nuclear extracts were incubated with the indicated concentrations of the compounds depicted in FIGS. 1-3. Following precipitation of the complexes with an anti-Max antibody, the total amount of associated c-Myc was detected by immunoblotting (top panel). As a control, the lower portion of the blot was probed with an anti-Max antibody (bottom panel). FIGS. 4B, 4C and 4D show EMSAs results. Recombinant c-Myc353-439 (which encodes the complete bHLH-ZIP dimerization domain) and full-length Max(S) were purified to homogeneity from E. coli and used at a final concentration of 60 nM in the presence of the indicated concentration of compound.
Nuclei from HL60 cells were prepared essentially as described previously (17). Briefly, approximately 4×10^7 washed nuclei were resuspended in 1 ml of ice cold buffer F, which contained 150 mM NaCl; 10 mM Tris-HCl, pH 7.1; 30 mM sodium pyrophosphate; 5 μM ZnCl2; 0.1% Nonidet P-40; 0.1 mM Na3VO4; 1 mM PMSF; 2.5 U/ml each of pepstatin, leupeptin, and approtinin. All reagents were from Sigma-Aldrich (St. Louis, Mo.). […]
10058-F4 analogs interfere directly with c-Myc-Max heterodimerization and DNA binding. […] To address this, the effect of each compound on c-Myc-Max association was determined in vitro by two different methods. […] The total amount of co-precipitating c-Myc protein was then assessed by immunoblotting. […]

c-Myc-Max(S) heterodimer = biological target: T2, c-Myc-Max(S) heterodimer (Homo sapiens, UniProt P01106); assay: electrophoretic mobility shift assay (EMSA), E-box DNA binding; type: biochemical; conditions: 60 nM each protein, 10 nM oligonucleotide
T2 construct: human Myc residues 353-439 with a GGCD extension at the C terminus; His6 (TEV-cleavable) (cleaved yes); made in house; host or cells: E. coli BL21DE3(plysS) for c-Myc; E. coli M15(pRep4) for Max
Description: as §1
Electrophoretic mobility shift Assays (EMSAs). Experiments were performed on 8% polyacrylamide:bis-acrylamide (80:1) gels in 0.5×TBE. […]
and was synthesized by Integrated DNA Technologies Inc (Coralville, Iowa). […] Data were analyzed with BioRad Quantity One software.
The second method used to gauge the effects of 10058-F4 and its analogs on c-Myc-Max complexes relied on the use of a simple, three component electrophoretic mobility shift assay (EMSA). […] The ability of the resultant heterodimer to bind a double-stranded target oligonucleotide containing a consensus E-box motif was then assessed by PAGE. […]

T1 sequence (P01106 whole entry, one chain of several): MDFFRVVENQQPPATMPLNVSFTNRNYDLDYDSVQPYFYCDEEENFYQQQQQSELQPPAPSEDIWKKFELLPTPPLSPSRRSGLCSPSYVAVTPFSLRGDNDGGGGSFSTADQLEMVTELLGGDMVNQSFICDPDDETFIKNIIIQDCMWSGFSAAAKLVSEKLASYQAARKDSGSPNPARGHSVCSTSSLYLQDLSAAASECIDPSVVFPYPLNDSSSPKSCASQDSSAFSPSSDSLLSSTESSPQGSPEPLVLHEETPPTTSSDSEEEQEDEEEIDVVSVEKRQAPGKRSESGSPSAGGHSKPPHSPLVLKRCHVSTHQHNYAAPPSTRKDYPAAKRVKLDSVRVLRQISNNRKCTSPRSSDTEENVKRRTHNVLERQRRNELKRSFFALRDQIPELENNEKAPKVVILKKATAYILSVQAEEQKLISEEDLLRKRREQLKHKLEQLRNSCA
T2 sequence (P01106 368-454, one chain of several): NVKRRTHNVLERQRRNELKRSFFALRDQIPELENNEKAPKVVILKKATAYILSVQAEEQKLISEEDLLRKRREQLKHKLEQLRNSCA

Row | SMILES | IC50 ([1]; Homo sapiens, HL-60, 120 h, dose-response profiles on day 5 following addition of compound, read-out: ID50, HL60 cell growth) [µM] | dissociation of c-Myc from Max (co-IP with anti-Max antibody) (c-Myc-Max complexes) | inhibition of E-box DNA binding by c-Myc-Max(S) (c-Myc-Max(S) heterodimer) | activity in HL60 cells compared with 10058-F4 ([1]; 10058-F4 in parallel)
1 | CCc1ccc(C=C2SC(=S)NC2=O)cc1 [Compound 10058-F4, (Z,E)-5-(4-ethylbenzylidene)-2-thioxothiazolidin-4-one] | 51 | promoted the dissociation of c-Myc from Max | dose-dependent, although variable, inhibition | –
2 | CC(C)c1ccc(/C=C2\SC(=S)N(CN3CCCCC3)C2=O)cc1 [Compound 28RH-NCN-1] | – | – | – | activities comparable to that of 10058-F4
